Assay results taken from US4055658A, “Cyanomethylphenethanolamines” (Mead Johnson & Company, priority 1976, dated 1977).
Like-named read-outs stand apart in the source and are kept apart here.

Columns and labels:
[1] = system: heart rate; assay: Cardiovascular effect (heart rate) measured simultaneously in the rat model; format: in vivo; details: 0.5 and 2.0 mg./kg.
Description: (§1) In the rat, transient bronchoconstriction is induced with a short-lasting intravenous (i.v.) infusion of methacholine to obtain a control value and at various times thereafter following intraduodenal (i.d.) administration of the test drug. Doses of test drug blocking methacholine induced bronchoconstriction are determined. In the dog, sustained bronchoconstriction is induced by continuous i.v. infusion of serotonin and doses of test drug necessary to reverse the bronchoconstriction are determined. In both animal models, measurements of cardiovascular effects from test drug is made simultaneously with the determination of the dose reversing bronchoconstriction. These in vivo comparisons are considered particularly significant since the bronchoconstriction induced resembles asthma and intraduodenal drug dosing of the anesthetized animal (i.e., rat) is similar to oral administration to a conscious animal. In the rat, 2-hydroxy-5-[1-hydroxy-2-[(1,1-dimethyl-2-phenylethyl)animo]ethyl]benzeneacetonitrile hydrochloride at a dose of 0.5 mg./kg. and 2.0 mg./kg. of body weight antagonizes methacholine-induced bronchoconstriction by 33.5 ± 5.2% and 72.3 ± 4.0%, respectively.

[2] = system: serotonin-increase pulmonary airway resistance; assay: Serotonin-induced sustained bronchoconstriction in anesthetized dog; format: in vivo
Description: as §1

[3] = system: guinea pig trachea; assay: Effect on spontaneous tone of guinea pig tracheal chain preparations; details: Cavia porcellus; in vitro, bath concentration; read-out: effective bath concentration (EC) providing a 50% decrease in the spontaneous tone of the guinea pig trachea
Source text: (§2) Two in vitro test systems particularly useful in determining selective beta stimulant activity are: (1) effect on spontaneous tone of guinea pig tracheal chain preparations as a measure of relaxant effect on airway smooth muscle, and (2) effect on force and rate of spontaneously beating right atria of the guinea pig as a measure of beta-stimulant effect on cardiac muscle. If a beta-adrenergic agent exerts an effect on spontaneous tone of guinea pig trachea at a concentration lower than is required to affect heart force and rate, there is a positive separation ratio and the agent is considered to have bronchodilator activity with minimal cardiac stimulation. Thus, a comparison of the test agent with standard beta-stimulants such as isoproterenol or other beta-adrenergic agents can be made and relative bronchial selectivity determined.

[4] = system: guinea pig right atria; assay: Effect on force and rate of spontaneously beating right atria of the guinea pig; details: Cavia porcellus, in vitro
Source text: as §2

[5] = system: heart rate; assay: Cardiovascular effect (heart rate) measured simultaneously in the dog model; format: in vivo; details: 0.125 and 0.5 mg./kg.
Description: as §1

[6] = system: methacholine-induced bronchoconstriction; assay: Methacholine-induced bronchoconstriction in anesthetized rat; format: in vivo; details: intraduodenal
Description: as §1

CC(C)(Cc1ccccc1)NCC(O)c1ccc(O)c(CC#N)c1.Cl (stereo not drawn) [2-Hydroxy-5-[1-hydroxy-2-[(1,1-dimethyl-2-phenylethyl)amino]ethyl]benzeneacetonitrile Hydrochloride]
effect on heart rate at bronchodilating doses [1]: without appreciably affecting heart rate | reduction of serotonin-increase pulmonary airway resistance ([2]; 0.125 mg./kg. body weight): 49.7 ± 13.4% | reduction of serotonin-increase pulmonary airway resistance ([2]; 0.5 mg./kg. body weight): 96.7 ± 12.3% | EC50 [3]: 0.0055 ± 0.0008 µg/mL | EC50 ([4]; force, read-out: EC50 increasing the force of guinea pig right atria): 0.16 ± 0.028 µg/mL | EC50 ([4]; rate, read-out: EC50 increasing the rate of guinea pig right atria): 0.33 ± 0.1 µg/mL | effect on heart rate at bronchodilating doses [5]: without appreciably affecting heart rate | antagonism of methacholine-induced bronchoconstriction ([6]; 0.5 mg./kg. of body weight): 33.5 ± 5.2% | antagonism of methacholine-induced bronchoconstriction ([6]; 2.0 mg./kg. of body weight): 72.3 ± 4.0%
